Measured values from PubChem BioAssay (NCI).
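In this assay, cells in 96-well plates receive the compound at five concentrations for 48 hours. Endpoints are linearly interpolated between the surrounding concentrations. GI50 is the concentration that inhibits growth by half. TGI is the concentration that stops growth completely.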

Experiments:
Assay in all cases: DTP human tumour cell line panel, 48 h
BT-549 breast = tested on: BT-549 breast
RXF 393 renal = tested on: RXF 393 renal
OVCAR-5 ovarian = tested on: OVCAR-5 ovarian
NCI-H460 lung = tested on: NCI-H460 lung
SF-268 CNS = tested on: SF-268 CNS
A549 NSCLC = tested on: A549 NSCLC
HL-60(TB) leukemia = tested on: HL-60(TB) leukemia
786-0 renal = tested on: 786-0 renal
LOX IMVI melanoma = tested on: LOX IMVI melanoma
MDA-MB-231 breast = tested on: MDA-MB-231 breast
UO-31 renal = tested on: UO-31 renal
HCT-116 colon = tested on: HCT-116 colon
MOLT-4 leukemia = tested on: MOLT-4 leukemia
SK-MEL-5 melanoma = tested on: SK-MEL-5 melanoma
HT29 colon = tested on: HT29 colon
PC-3 prostate = tested on: PC-3 prostate
HS 578T breast = tested on: HS 578T breast
SK-OV-3 ovarian = tested on: SK-OV-3 ovarian
ACHN renal = tested on: ACHN renal
SN12C renal = tested on: SN12C renal
NCI/ADR-RES ovarian = tested on: NCI/ADR-RES ovarian
CAKI-1 renal = tested on: CAKI-1 renal
K-562 leukemia = tested on: K-562 leukemia
HCT-15 colon = tested on: HCT-15 colon
OVCAR-8 ovarian = tested on: OVCAR-8 ovarian
KM12 colon = tested on: KM12 colon
SF-295 CNS = tested on: SF-295 CNS
UACC-62 melanoma = tested on: UACC-62 melanoma
U251 CNS = tested on: U251 CNS
HCC-2998 colon = tested on: HCC-2998 colon
HOP-62 NSCLC = tested on: HOP-62 NSCLC
T-47D breast = tested on: T-47D breast
UACC-257 melanoma = tested on: UACC-257 melanoma
OVCAR-3 ovarian = tested on: OVCAR-3 ovarian
MDA-MB-435 = tested on: MDA-MB-435
TK-10 renal = tested on: TK-10 renal
SW-620 colon = tested on: SW-620 colon
RPMI-8226 leukemia = tested on: RPMI-8226 leukemia
MALME-3M melanoma = tested on: MALME-3M melanoma
EKVX NSCLC = tested on: EKVX NSCLC
NCI-H226 lung = tested on: NCI-H226 lung
SNB-19 CNS = tested on: SNB-19 CNS
SF-539 CNS = tested on: SF-539 CNS
CCRF-CEM leukemia = tested on: CCRF-CEM leukemia
MCF7 breast = tested on: MCF7 breast
NCI-H23 lung = tested on: NCI-H23 lung
OVCAR-4 ovarian = tested on: OVCAR-4 ovarian
NCI-H522 lung = tested on: NCI-H522 lung
SNB-75 CNS = tested on: SNB-75 CNS
HOP-92 NSCLC = tested on: HOP-92 NSCLC
COLO 205 colon = tested on: COLO 205 colon
A498 renal = tested on: A498 renal
SK-MEL-28 melanoma = tested on: SK-MEL-28 melanoma
M14 melanoma = tested on: M14 melanoma
DU-145 prostate = tested on: DU-145 prostate

`Clc1ccc2nc(Oc3ccccc3)cnc2c1` showed a GI50 (BT-549 breast) of over 100 µM, a TGI (BT-549 breast) of over 100 µM and a GI50 (RXF 393 renal) of over 100 µM. For the same compound, the TGI (RXF 393 renal) was over 100 µM, the GI50 (OVCAR-5 ovarian) was over 100 µM and the TGI (OVCAR-5 ovarian) was over 100 µM. The GI50 (NCI-H460 lung) was over 100 µM, the TGI (NCI-H460 lung) was over 100 µM and the GI50 (SF-268 CNS) was over 100 µM. For the same compound, the TGI (SF-268 CNS) was over 100 µM, the GI50 (A549 NSCLC) was over 100 µM and the TGI (A549 NSCLC) was over 100 µM. It also gave a GI50 (HL-60(TB) leukemia) of over 100 µM, a TGI (HL-60(TB) leukemia) of over 100 µM and a GI50 (786-0 renal) of over 100 µM. The TGI (786-0 renal) was over 100 µM, the GI50 (LOX IMVI melanoma) was over 100 µM and the TGI (LOX IMVI melanoma) was over 100 µM. The GI50 (MDA-MB-231 breast) was over 100 µM, the TGI (MDA-MB-231 breast) was over 100 µM and the GI50 (UO-31 renal) was over 100 µM. For the same compound, the TGI (UO-31 renal) was over 100 µM, the GI50 (HCT-116 colon) was over 100 µM and the TGI (HCT-116 colon) was over 100 µM. The GI50 (MOLT-4 leukemia) was over 100 µM, the TGI (MOLT-4 leukemia) was over 100 µM and the GI50 (SK-MEL-5 melanoma) was over 100 µM. The TGI (SK-MEL-5 melanoma) was over 100 µM, the GI50 (HT29 colon) was over 100 µM and the TGI (HT29 colon) was over 100 µM. It also gave a GI50 (PC-3 prostate) of over 100 µM, a TGI (PC-3 prostate) of over 100 µM and a GI50 (HS 578T breast) of over 100 µM. For the same compound, the TGI (HS 578T breast) was over 100 µM, the GI50 (SK-OV-3 ovarian) was over 100 µM and the TGI (SK-OV-3 ovarian) was over 100 µM. It also gave a GI50 (ACHN renal) of over 100 µM, a TGI (ACHN renal) of over 100 µM and a GI50 (SN12C renal) of over 100 µM. The TGI (SN12C renal) was over 100 µM, the GI50 (NCI/ADR-RES ovarian) was over 100 µM and the TGI (NCI/ADR-RES ovarian) was over 100 µM. The GI50 (CAKI-1 renal) was over 100 µM, the TGI (CAKI-1 renal) was over 100 µM and the GI50 (K-562 leukemia) was over 100 µM. It also gave a TGI (K-562 leukemia) of over 100 µM, a GI50 (HCT-15 colon) of over 100 µM and a TGI (HCT-15 colon) of over 100 µM. The GI50 (OVCAR-8 ovarian) was over 100 µM, the TGI (OVCAR-8 ovarian) was over 100 µM and the GI50 (KM12 colon) was over 100 µM. The TGI (KM12 colon) was over 100 µM, the GI50 (SF-295 CNS) was over 100 µM and the TGI (SF-295 CNS) was over 100 µM. It also gave a GI50 (UACC-62 melanoma) of over 100 µM, a TGI (UACC-62 melanoma) of over 100 µM and a GI50 (U251 CNS) of over 100 µM. It also gave a TGI (U251 CNS) of over 100 µM, a GI50 (HCC-2998 colon) of over 100 µM and a TGI (HCC-2998 colon) of over 100 µM. It also gave a GI50 (HOP-62 NSCLC) of over 100 µM, a TGI (HOP-62 NSCLC) of over 100 µM and a GI50 (T-47D breast) of over 100 µM. It also gave a TGI (T-47D breast) of over 100 µM, a GI50 (UACC-257 melanoma) of over 100 µM and a TGI (UACC-257 melanoma) of over 100 µM. For the same compound, the GI50 (OVCAR-3 ovarian) was over 100 µM, the TGI (OVCAR-3 ovarian) was over 100 µM and the GI50 (MDA-MB-435) was over 100 µM. It also gave a TGI (MDA-MB-435) of over 100 µM, a GI50 (TK-10 renal) of over 100 µM and a TGI (TK-10 renal) of over 100 µM. For the same compound, the GI50 (SW-620 colon) was over 100 µM, the TGI (SW-620 colon) was over 100 µM and the GI50 (RPMI-8226 leukemia) was over 100 µM. The TGI (RPMI-8226 leukemia) was over 100 µM, the GI50 (MALME-3M melanoma) was over 100 µM and the TGI (MALME-3M melanoma) was over 100 µM. It also gave a GI50 (EKVX NSCLC) of over 100 µM, a TGI (EKVX NSCLC) of over 100 µM and a GI50 (NCI-H226 lung) of over 100 µM. It also gave a TGI (NCI-H226 lung) of over 100 µM, a GI50 (SNB-19 CNS) of over 100 µM and a TGI (SNB-19 CNS) of over 100 µM. For the same compound, the GI50 (SF-539 CNS) was over 100 µM, the TGI (SF-539 CNS) was over 100 µM and the GI50 (CCRF-CEM leukemia) was over 100 µM. The TGI (CCRF-CEM leukemia) was over 100 µM, the GI50 (MCF7 breast) was over 100 µM and the TGI (MCF7 breast) was over 100 µM. The GI50 (NCI-H23 lung) was over 100 µM, the TGI (NCI-H23 lung) was over 100 µM and the GI50 (OVCAR-4 ovarian) was over 100 µM. The TGI (OVCAR-4 ovarian) was over 100 µM, the GI50 (NCI-H522 lung) was over 100 µM and the TGI (NCI-H522 lung) was over 100 µM. For the same compound, the GI50 (SNB-75 CNS) was 59 µM, the TGI (SNB-75 CNS) was over 100 µM and the GI50 (HOP-92 NSCLC) was 14 µM. It also gave a TGI (HOP-92 NSCLC) of over 100 µM, a GI50 (COLO 205 colon) of over 100 µM and a TGI (COLO 205 colon) of over 100 µM. It also gave a GI50 (A498 renal) of 8.84 µM, a TGI (A498 renal) of over 100 µM and a GI50 (SK-MEL-28 melanoma) of over 100 µM. For the same compound, the TGI (SK-MEL-28 melanoma) was over 100 µM, the GI50 (M14 melanoma) was over 100 µM and the TGI (M14 melanoma) was over 100 µM. It also gave a GI50 (DU-145 prostate) of over 100 µM and a TGI (DU-145 prostate) of over 100 µM.
